Read-outs that look alike come from different tables or passages of the source.
Tests used:
[1] = Protocol: FIG. 26A. Stability in blood. […] N=3. […] Control conditions preventing digest include using heat-inactivated (HI) serum and 0° C. incubation. FIG. 26C. Assessing Dox retention in serum.
To study stability in blood, HerDox or Dox (60 uM each) were incubated in equivalent volumes of whole blood (containing 0.5 mM EDTA to prevent coagulation and freshly collected from the aorta of an anesthetized mouse following IACUC-approved procedures) for up to 60 min at 37° C., followed by centrifugation through 10K mwco filters. Retentate and filtrate fluorescences were extrapolated against a Dox calibration curve performed in blood plasma to correct for plasma-induced fluorescence shift. […] Control conditions preventing digest include using heat-inactivated serum and 0° C. incubation. […] Filtrates were collected and membranes washed 3× with HBS before collection and fluorescence measurement of retentates. All fluorescence spectra were obtained using a 515 nm cutoff filter.

[2] = test system: U251 human glioma cells; test: Targeted glioma cell death in vitro; type: cell-based; conditions: single dose
Protocol: All treatments, N=3. FIG. 27A. Comparing cytotoxicity to HER2+ (MDAMB-435) and HER2− (MDA-MB-231) cells in separate cultures. Left, Relative survival (as % of untreated cells) on day 3 of treatment. Right, Micrograph of live cells after treatment. Control, mock (HBS) treatment. FIG. 27B, Receptor specificity of cytotoxicity. […] FIG. 27C, Toxicity to cells displaying differential HER2. Cytotoxicities from HerDox titrations were assessed on each cell line by metabolic assay and confirmed by crystal violet stain on day 3 of treatment. CD50 values (shown in log scale) were determined by non-linear regression analyses of HerDox killing curves using GraphPad Prism. The relative HER2 level of each cell line is shown next to each CD50 value. FIG. 27D, Targeting in a mixed MDA-MB-435(HER2+,GFP−)/MDA-MB-231(HER2−,GFP+) cell culture. Survival was determined by calculating the relative doubling time (DT) of experimental (exp) cells normalized by mock-treated (con) cells based on crystal violet stains (total cells) and GFP fluorescence (MDAMB-231 cells), and applying DTMDA-MB-435=DTTotal-DTMDA-MB-231 as previously described. Relative survival is shown for Day 2 of treatment. […] U251 cells were treated once with the indicated HerDox (and competitive inhibitor where indicated) or Dox doses and measured for cell survival at the indicated time points after treatment. * P<0.05 compared to Mock. […]

[3] = test system: U87 human glioma tumors
Protocol: FIG. 29A, Live mouse imaging of HerDox at indicated time points after injection. Arrows, Tumors. 29B-29C, Comparative biodistribution of HerDox and Dox in tissues harvested at 3 h post-injection. FIG. 29B, Imaging of biodistribution in harvested tissues. Pseudocolored FI corresponds to the color bar. Max, highest FI. FIG. 29C, Quantification of HerDox and Dox biodistribution, showing Dox FI/tissue. FIG. 29D. Comparative pharmacokinetics of HerDox and Dox in mice with tumors expressing differential HER2. Tissues were harvested from independently injected mice euthanized at indicated time points after injection and FI/tissue acquired using a small animal imaging system as described herein.
Heart rate and body temperature were monitored. […] Three beats were averaged for each measurement.
A customized macro-illumination and detection system was used for in vivo and tissue imaging. Dox was excited with the 488 nm line of a Coherent Innova ArKr laser. […] Fluorescence light was collected via a telecentric lens (Melles-Griot 59LGG925 base lens with a 59LGL428 attachment lens) that can operate at f/#2, has a magnification of 0.9, working distance of 257 mm and a depth of field of 81.5 mm. […] ImageJ was used to calculate average fluorescence intensities of the overall region of each selected tissue. […]

[4] = test system: MDA-MB-435 cells; test: Uptake and intracellular trafficking, confocal fluorescence microscopy; type: cell-based, human; conditions: 0.5 uM final Dox concentration
Protocol: FIG. 28A. […] Dox fluorescence (magenta) is overlaid on DIC images. FIG. 28D. […] Relaxed (nicked) and supercoiled (sc) plasmid forms are indicated.
General procedures: MDA-MB-435 cells were plated ˜36 h before receiving HerDox or Dox (0.5 uM final Dox concentration) in fresh media containing the indicated constructs. For live cell assays, the cells (plated in chambers) were imaged at the indicated time points after treatment, under brightfield or DIC (where indicated) and fluorescence modes to identify the cell structure and Dox fluorescence, respectively. For fixed cell assays, the cells were plated on cover slips in 24-well plates (1×10^5 cells/well) ˜36 h before receiving HerDox or Dox in fresh complete media at 37° C., and separate samples fixed and processed for immunofluorescence against HerPBK10 following established procedures. A Leica SP2 laser-scanning confocal fluorescence microscope was used for fixed and live cell imaging.
The ability to visualize nuclear Dox fluorescence after cell exposure to free Dox has been used frequently to detect Dox uptake in cells, and has been attributed to interaction with histones. To determine whether these localization differences indicate that Dox remains attached to HerPBK10 during uptake, the inventors used a counterstain for HerPBK10.

Molecule	Dox loss from retentates [1]	protection of the DNA duplex from serum degradation [1]	remaining free Dox (weak or non-specific binding to serum proteins) ([1]; mouse, serum)	cell death [2]	delivery to U87 tumors higher compared to MDA-MB-435 tumors ([3]; mouse, in vivo, iv)	subcellular localization of Dox fluorescence [4]	Dox loss from retentates ([1]; 100% mouse serum, 30 min at 37° C., 10K mwco)	delivery to U87 tumors lower compared to MDA-MB-435 tumor-bearing mice ([3]; i.v.)
COc1cccc2c1C(=O)c1c(O)c3c(c(O)c1C2=O)C[C@@](O)(C(=O)CO)C[C@@H]3O[C@H]1C[C@H](N)[C@H](O)[C@H](C)O1.Cl [Dox, Doxorubicin-HCl, reference compound]	~70%	partially protected the DNA from serum degradation	~30%	75-80%	200-300 fluorescence units per tissue	detectable at the nuclear periphery immediately after administration	–	–
HerDox: self-assembled nanoparticle of oligonucleotide duplex, doxorubicin and HerPBK10 (conjugate) LPPRLKEMKSQESAAGSKLVLRCETSSEYSSLRFKWFKNGNELNRKNKPQNIKIQKKPGKSELRINKASLADSGEYMCKVISKLGNDSASANITIVESNEIITGMPASTEGAYVSSESPIRISVSTEGANTSSSTSTSTTGTSHLVKCAEKEKTFCVNGGECFMVKDLSNPSRYLCKCQPGFTGARCTENVPMKVQNQEKAEELYMRRAAMYEEGPPPSYESVVSAAPVAAALGSPFDAPLDPPFVPPRYLRPTGGRNSIRYSELAPLFDTTRVYLVDNKSTDVASLNYQNDHSNFLTTVIQNNDYSPGEASTQTINLDDRSHWGGDLKTILHTNMPNVNEFMFTNKFKARVMVSRLPTKDNQVELKYEWVEFTLPEGNYSETMTIDLMNNAIVEHYLKVGRQNGVLESDIGVKFDTRNFRLGFDPVTGLVMPGVYTNEAFHPDIILLPGCGVDFTHSRLSNLLGIRKRQPFQEGFRITYDDLEGGNIPALLDVDAYQASLKDDTEQGGGGAGGSNSSGSGAEENSNAAAAAMQPVEDMNDHAIRGDTFATRAEEKRAEAEAAAEAAAPAAQPEVEKPQKKPVIKPLTEDSKKRSYNLISNDSTFTQYRSWYLAYNYGDPQTGIRSWTLLCTPDVTCGSEQVYWSLPDMMQDPVTFRSTRQISNFPVVGAELLPVHSKSFYNDQAVYSQLIRQFTSLTHVFNRFPENQILARPPAPTITTVSENVPALTDHGTLPLRNSIGGVQRVTITDARRRTCPYVYKALGIVSPRVLSSRTFKKKKKKKKKK	–	–	–	96-99%	–	nuclear accumulation by 60 min	no Dox loss was detected	~50%
